Assay results taken from US7608683B2, “Stress proteins and peptides and methods of use thereof” (The Regents of the University of California, priority 2000, dated 2009).
Where a SMILES comes first, the peptide text is derived from it. The star is where a group is joined. Biotin = O=C1N[C@H]2[C@H](CS[C@H]2CCCCC(=O)*)N1

Key:
[1] = test system: PBMC from patients with RA; settings: 31 RA patient samples
Method: In FIG. 13A, Stimulation Index (SI) (y-axis). […] The dots represent individual patients. Lines indicate median values.
In FIG. 13B samples of 20 patients with recent onset RA and samples of 12 patients with OA were tested for T cell proliferation to the proteins and to the individual peptides.

[2] = test system: PBMC of subjects with JIA; experiment: immunological recognition (T cell proliferation and/or cytokine production) in subjects with JIA; format: cell-based, human
Excerpt: The right Y-axis depicts the stimulation index SI, and the left Y-axis depicts the production of cytokines INF-γ and IL-10 in pg/ml.
Immunological recognition of an antigen can be defined as antigen-specific T cell proliferation and/or antigen-specific cytokine production after culture with the specific antigens. In addition, in a very high percentage of subjects (ranging from 60 to 100%), T cell recognition of these pan DR binding hsp60 peptides could be detected (FIG. 9). This percentage can be considered extremely high if one considers both the failures of previous studies to determine T cell epitopes in JIA and the heterogenic HLA background in subjects with JIA.
If one compares the identified peptides with peptides that previously have been identified through the rat model of arthritis, the superiority of the method used here becomes evident. In previous studies in the model of adjuvant arthritis, it has been shown that mycobacterial hsp60 peptide containing amino acids 256-270 could induce protection in Adjuvant Arthritis. Following this finding a lot of effort has been put in attempting to identify the presence of 256-270 specific T cells in subjects with JIA. Based on the data provided by the computer algorithm, a new peptide was designed that was compared to the 256-270 aa peptide. […]

[3] = test system: patients with RA; settings: 15 RA patients, 0.25, 2.5 or 25 mg daily orally for 6 months
Excerpt: This study was a Phase I Immune Tolerization study conducted to determine whether in RA interplay between HLA and dnaJ-derived peptides there is maintained and/or stimulation of T cells which participate in autoimmune inflammation. The trial (number “n” of patients who completed=13) was designed in order to adhere to the American College of Rheumatology (ACR) 20 criteria for evaluation of efficacy.
Data from Phase I: The data shown in FIGS. 11A-E and 12A-E stem from a Phase I trial in which a total of 13 human RA patients were treated with three different doses of dnaJP1 qd po for 6 months. In vitro T cell responses to dnaJP1 were monitored at monthly intervals by measuring T cell proliferation and cytokine production in patients treated with dnaJP1 or control molecules.
We designed a pilot clinical trial to obtain information regarding both safety and immunological efficacy of the treatment. Enrollment criteria for this study included active RA as defined by the American College of Rheumatology, a disease duration <5 years and in vitro responsiveness to dnaJP1, defined as T cell proliferation and/or production of proinflammatory cytokines. DnaJP1 was given orally for 6 months. […]

[4] = test system: PBMC of subjects with JIA; format: cell-based, human; settings: 72 hours culture, ELISA
[5] = test system: PBMC from patients with JDM; experiment: T cell proliferation (thymidine incorporation), PBMC of Juvenile Dermatomyositis patients; format: cell-based, human; settings: 10 micrograms/ml, 96 hours; active disease vs remission
Excerpt: FIG. 17 is a graph showing T cell proliferative responses of PBMC from patients with Juvenile Dermatomyositis (JDM) towards the hsp60 bacterial and human peptides of FIG. 5. Patients in remission (n=7); patients with active JDM (n=6).
This example identifies in another pediatric disease a peptide from the pool whose recognition triggers regulatory type T cells. Thirteen patients with a definite diagnosis of JDM according to standard disease criteria, were included in this study. […] All antigens were cultured at 10 micrograms/ml. After 96 hours thymidine incorporation was measured. The results are expressed in FIG. 17 as stimulation index (SI). SI is defined as counts per minute (cpm) thymidine incorporation in cells cultured with an antigen divided by cpm of cells cultured in culture medium without antigen. […] Bars represents the mean SI for PBMC from JDM patients with either active disease or incomplete clinical remission.

[6] = test system: PBMCs from patients with RA; experiment: T cell proliferation assay, PBMC of RA patients in the dnaJP1 trial; format: cell-based, human; settings: negative control peptide
Excerpt: FIG. 20A-L Treatment-induced modulation of T cell responses to dnaJP1. PBMC immune responses to dnaJP and controls from patients enrolled in the trial (n=15). T cell-proliferative response after in vitro culture with dnaJP1(a) or an irrelevant altered peptide ligand (b) in a standard proliferation assay. Phytohemagglutinin (a, ▴) was used as a positive control for T cell proliferation. […] Intracellular production of IL-2, IFN-γ, and TNF-α in response to dnaJP1 (c, e, and g) or PADRE peptide (d-f and h, respectively) at day 0 assessed at monthly intervals during treatment. Cytokine production is expressed as the percentage of CD3/cytokine double-positive cells measured by FACS in antigen-stimulated cultures, nonstimulated cultures (y axis). Error bars represent SD of the mean. Intracellular production of IL-4 (i) and IL-10 (k) after in vitro culture with dnaJP1 or with PADRE (j and l) at days 0, 56, and 168 of the treatment period.
T Cell Proliferation Assays. Peripheral blood mononuclear cells (PBMCs) were cultured in triplicate in […] u-shaped bottom wells (Costar, Cambridge, Mass.) at 5×10^5 cells per well for 120 h with or without antigen. […] Thymidine uptake was measured by using a liquid scintillation counter. Results are expressed as a mean cpm of triplicate cultures. The magnitude of the response is expressed as stimulation index: the mean cpm of stimulated/nonstimulated cultures. […]

| Compound | recognition (T cell proliferation) by RA patients [1] | further results |
| --- | --- | --- |
| PYILLVSSKVSTVKD [P3] | recognized | – |
| GEALSTLVVNKIRGT [P1] | recognized | T cell responses as defined by T cell proliferation and cytokine production [2]: did induce T cell responses |
| GEALSTLVLNRLKVG [P2] | recognized | – |
| IAGLFLTTEAVVADK [P7] | recognized | – |
| KCEFQDAYVLLSEKK [P6] | recognized | – |
| C[C@H](NC(=O)[C@H](C)NC(=O)[C@H](Cc1c[nH]cn1)NC(=O)CNC(=O)[C@H](Cc1ccc(O)cc1)NC(=O)[C@H](CCC(N)=O)NC(=O)[C@H](CC(=O)O)NC(=O)[C@H](Cc1ccc(O)cc1)NC(=O)[C@H](C)NC(=O)[C@H](C)NC(=O)[C@H](CCCNC(=N)N)NC(=O)[C@H](CCCCN)NC(=O)[C@H](CCC(N)=O)NC(=O)CCCC[C@@H]1SC[C@@H]2NC(=O)N[C@@H]21)C(=O)N[C@@H](Cc1ccccc1)C(=O)N[C@@H](CCC(=O)O)C(N)=O [dnaJP1] (Biotin-QKRAAYDQYGHAAFE-NH2) | – | tolerability / side effects [3]: well tolerated because no significant side effects were reported |
| EAVLEDPYILLVSSK [P5] | recognized | – |
| mycobacterial hsp60 256-270: negative control peptide, mycobacterial hsp60 amino acids 256-270, protective in rat adjuvant arthritis | – | antigen-specific cytokine production (IL-10, IFN-γ, TNF-α) [4]: did not induce any cytokine production |
| AYVLLSEKKISSIQS [P4] | recognized | – |
| VASLLTTAEVVVTEI (listed as Homo sapiens) [P8, residues 535-549 of human hsp60] | recognized | recognition (T cell proliferation, SI) in JDM patients [5]: recognized by the patients during disease remission |
| DERAAYDQYGHAAFE (Biotin-DERAAYDQYGHAAFE-NH2; SMILES C[C@H](NC(=O)[C@H](C)NC(=O)[C@H](Cc1c[nH]cn1)NC(=O)CNC(=O)[C@H](Cc1ccc(O)cc1)NC(=O)[C@H](CCC(N)=O)NC(=O)[C@H](CC(=O)O)NC(=O)[C@H](Cc1ccc(O)cc1)NC(=O)[C@H](C)NC(=O)[C@H](C)NC(=O)[C@H](CCCNC(=N)N)NC(=O)[C@H](CCC(=O)O)NC(=O)[C@H](CC(=O)O)NC(=O)CCCC[C@@H]1SC[C@@H]2NC(=O)N[C@@H]21)C(=O)N[C@@H](Cc1ccccc1)C(=O)N[C@@H](CCC(=O)O)C(N)=O) [dnaJPv, altered peptide ligand, identical to dnaJP1 except for the two N-terminal amino acids; negative control] | – | proliferative T cell response in patients with RA [6]: does not induce a proliferative T cell response; proliferative T cell response in patients with RA ([6]; listed as dnaJpV): not stimulatory in patients |
